Measured values published in PubChem BioAssay (NCI).
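Five compound concentrations were applied to cells in 96-well plates for 48 hours; endpoints were derived by simple linear interpolation of the resulting dose-response curve. Definition used: TGI = concentration required for complete inhibition of growth.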

How the values were obtained:
Assay in all cases: NCI tumour cell line growth inhibition, 48 h
HS 578T breast = test system: HS 578T breast
T-47D breast = test system: T-47D breast
DU-145 prostate = test system: DU-145 prostate
NCI/ADR-RES ovarian = test system: NCI/ADR-RES ovarian
MDA-MB-231 breast = test system: MDA-MB-231 breast
KM20L2 colon = test system: KM20L2 colon
DLD-1 colon = test system: DLD-1 colon
P388/ADR leukemia = test system: P388/ADR leukemia
SN12K1 renal = test system: SN12K1 renal
P388 leukemia = test system: P388 leukemia

Structure (SMILES)	TGI (HS 578T breast) [µM]	TGI (T-47D breast) [µM]	TGI (DU-145 prostate) [µM]	TGI (NCI/ADR-RES ovarian) [µM]	TGI (MDA-MB-231 breast) [µM]	TGI (KM20L2 colon) [µM]	TGI (DLD-1 colon) [µM]	TGI (P388/ADR leukemia) [µM]	TGI (SN12K1 renal) [µM]	TGI (P388 leukemia) [µM]
COc1ccc(C(=C2C=CC=C2)c2ccc(OC)cc2)cc1	94.4	57.7	> 100	> 100	34.8					
Oc1ccc(-c2nc3ccc(Br)cc3s2)cc1			36.7	67.3	45					
Nc1nc(SCCC/C=C/I)nc2c1ncn2C1OC(COP(=O)(O)O)C(O)C1O (stereo not drawn)						> 100	> 100			
Nc1c(S(=O)(=O)O)cc2cc(S(=O)(=O)O)ccc2c1N=Nc1ccc(-c2ccc(N=Nc3c(N)c(S(=O)(=O)O)cc4cc(S(=O)(=O)O)ccc34)c(S(=O)(=O)O)c2)cc1				> 100		> 100	> 100	> 100	> 100	> 100
N=c1nnc2ccc(Cl)cc2n1O	> 100	> 100	> 100	> 100	> 100					
CCN(CC)CCNC(=O)c1cc2cc(NC(=O)c3cc4cc([N+](=O)[O-])ccc4[nH]3)ccc2[nH]1		> 100	31.8	> 100	> 100					
CC1=C(Cl)C=CP(=O)(Oc2ccccc2)C1 (stereo not drawn)						> 100				
COc1ccc(/C=c2\sc3n(c2=O)CCN=3)cc1						> 100	> 100			
